ChEMBL document CHEMBL4831549, “The Marine Neurotoxin Brevetoxin (PbTx-2) Inhibits Karenia brevis and Mammalian Thioredoxin Reductases by Targeting Different Residues” (J Nat Prod, 2021)
Active and inactive are the calls of the source. No cut-off for these calls is given here.

Legend:
Karenia brevis [1] = test: Inhibition of Karenia brevis TrxRD3 assessed as reduction in substrate reduction at 40 uM using DTNB as a substrate incubated for 60 mins in the presence of NADPH followed by substrate addition measured for 5 mins by absorbance based assay relative to control
[2] = Inhibition of Karenia brevis TrxR assessed as reduction in substrate reduction using H2O2 as a substrate incubated for 60 mins in the presence of NADPH followed by substrate addition measured for 15 mins by absorbance based assay
Karenia brevis [3] = test: Inhibition of Karenia brevis TrxR assessed as reduction in substrate reduction at 40 uM using human Trx and insulin as a substrate incubated for 60 mins in the presence of NADPH followed by substrate addition measured for 5 mins by absorbance based assay relative to control
Karenia brevis [4] = test: Inhibition of Karenia brevis TrxR assessed as reduction in substrate reduction at 40 uM using GSSG as a substrate incubated for 60 mins in the presence of NADPH followed by substrate addition measured for 30 mins by absorbance based assay relative to control
Karenia brevis [5] = test: Inhibition of Karenia brevis TrxR assessed as reduction in substrate reduction at 10 to 100 uM using H2O2 as a substrate incubated for 60 mins in the presence of NADPH followed by substrate addition measured for 15 mins by absorbance based assay relative to control; conditions: dose 10-100 µM
Karenia brevis [6] = test: Binding affinity Karenia brevis TrxR assessed as formation at 7.2 uM by LC-MS/MS analysis
Karenia brevis [7] = test: Inhibition of Karenia brevis TrxR assessed as reduction in substrate reduction at 40 uM using DTNB as a substrate incubated for 60 mins in the presence of NADPH followed by substrate addition measured for 5 mins by absorbance based assay relative to control
[8] = target: T1, Thioredoxin reductase 1, cytoplasmic (Rattus norvegicus) (UniProt O89049); test: Binding affinity to rat TrxR1 assessed as adduct formation at 7.2 uM by LC-MS/MS analysis
T1 sequence (whole entry): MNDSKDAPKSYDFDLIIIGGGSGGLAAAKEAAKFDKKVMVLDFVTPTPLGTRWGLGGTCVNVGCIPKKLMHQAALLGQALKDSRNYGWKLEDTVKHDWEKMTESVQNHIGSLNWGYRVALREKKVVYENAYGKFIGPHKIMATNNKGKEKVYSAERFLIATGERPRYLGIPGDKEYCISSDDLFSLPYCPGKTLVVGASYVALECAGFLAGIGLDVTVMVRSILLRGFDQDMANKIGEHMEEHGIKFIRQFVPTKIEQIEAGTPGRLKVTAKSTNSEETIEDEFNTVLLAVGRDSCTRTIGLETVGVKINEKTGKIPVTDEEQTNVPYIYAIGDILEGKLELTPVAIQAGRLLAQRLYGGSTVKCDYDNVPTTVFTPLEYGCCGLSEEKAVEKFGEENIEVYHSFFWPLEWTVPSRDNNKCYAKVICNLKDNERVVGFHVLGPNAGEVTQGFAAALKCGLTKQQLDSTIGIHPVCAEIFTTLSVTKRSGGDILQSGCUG

**Q.** Which inhibition (Karenia brevis [1]) does the source give for `C=C(C=O)C[C@@H]1C[C@H](O)[C@]2(C)O[C@@H]3C[C@@H]4O[C@@H]5C[C@]6(C)O[C@]7(C)CC[C@@H]8O[C@@H]9C[C@]%10(C)O[C@@H]%11C(C)=CC(=O)O[C@H]%11C[C@H]%10O[C@H]9C[C@@H](C)[C@H]8O[C@H]7C[C@H]6O[C@@]5(C)C/C=C\[C@H]4O[C@H]3C[C@H]2O1` [BREVETOXIN B] here?
**A.** 20.7%

**Q.** And the IC50 [2]?
**A.** 56 µM

**Q.** What about the inhibition (Karenia brevis [3]) of the same compound?
**A.** 34%

**Q.** What about the inhibition (Karenia brevis [4]) of the same compound?
**A.** 32.5%

**Q.** And the inhibition (Karenia brevis [5])?
**A.** 39.6%

**Q.** And the Activity (Karenia brevis [6])?
**A.** Active

**Q.** What about the inhibition (Karenia brevis [7]) of the same compound?
**A.** 44.7%

**Q.** What about the Activity [8] of the same compound?
**A.** Active
